Results taken from US5677282A (Proscript, Inc., priority 1995, dated 1997).
Where a SMILES comes first, the peptide text is derived from it. [ ]: non-standard residue; d: D form. The star is where a group is joined. Phg = N[CH](C(=O)O)c1ccccc1; Cbz = O=C(OCc1ccccc1)*; X1 = S=c1[nH]nc(N*)s1; Bn = c1ccc(C*)cc1

What was measured:
Type in all cases: biochemical
92 kD gelatinase = 92 kD gelatinase (Homo sapiens, UniProt P14780); assay: Assay of 92 KD gelatinase inhibition activity; conditions: 92KD gelatinase 25 pM, H-150 buffer pH 7.4; read-out: Ki(app)
Protocol: H-150 buffer, pH 7.4, was prepared by CaCl2 H2 O (1.47 grams), NaCl (8.77 grams) and N-[2-hydroxyethyl]piperazine-N'-[2-ethanesulfonic acid](23.83 grams) to distilled and deionized water and then bring the final volume of the solution to 1 liter. A reaction mixture having a final volume of 500 μL was prepared with H-150 buffer, 200 μgrams of Pro-92KD gelatinase (Strongin et al., J. Biol. Chem., 268:14033 (1993); Goldberg, et al., J. Biol. Chem., 267:4583 (1992); Okada et al., J. Biol. Chem. 267:21712 (1992)), p-aminophenyl mercuric acetate (Sigma Chemical Co., St. Louis, Mo.) (1 mM) and Brij (dodexylpoly(oxyethyleneglycolether))(0,008% w/v). The reaction mixture wsa then incubated for 24 hours at 37° C.
The reaction mixture was applied to a NAP-5 column (G-25 SEPHADEX™, Pharmacia). Fractions containing 72KD gelatinase were identified using 12% polyacrylamide gel electrophoresis and concentrated to about 100-200 μliters by centrifigation (5000 g, 1 hour).
(§1) A solution containing H-150 buffer (2.0 mL), 92KD gelatinase (25 pM) and ethylphenolpoly(ethylene-glycolether)n (Boerhringer Mannheim) (4.0 μM) was prepared in a stirred cuvette. Coumarin peptide substrate (4 μL of a 5 mM solution in dimethyl sulfoxide) was added to the reaction mixture. The rate of hydrolysis was determined for about 100-200 seconds by measuring the fluorescence of the reaction at ex328 nanometers and […] using a Hitachi F-2000 Fluorescence Spectrophotometer.
(§2) 2 μL of a 10 mM inhibitor stock solution (in dimethyl sulfoxide) is added and the reduction in the rate of hydrolysis is determined. Additional 2 μL aliquots of the stock inhibitor solution is added until a 30% to 70% inhibition is observed. Ki is calculated on the assumption of simple competitive inhibition and that the substrate concentration is much less than Km.

72 kD gelatinase = biological target: T1, 72 kD gelatinase (Homo sapiens, UniProt P08253); assay: Assay of 72 KD gelatinase inhibition activity; conditions: 72KD gelatinase 180 pM, H-150 buffer pH 7.4; read-out: Ki(app)
T1 sequence (P08253 110-660): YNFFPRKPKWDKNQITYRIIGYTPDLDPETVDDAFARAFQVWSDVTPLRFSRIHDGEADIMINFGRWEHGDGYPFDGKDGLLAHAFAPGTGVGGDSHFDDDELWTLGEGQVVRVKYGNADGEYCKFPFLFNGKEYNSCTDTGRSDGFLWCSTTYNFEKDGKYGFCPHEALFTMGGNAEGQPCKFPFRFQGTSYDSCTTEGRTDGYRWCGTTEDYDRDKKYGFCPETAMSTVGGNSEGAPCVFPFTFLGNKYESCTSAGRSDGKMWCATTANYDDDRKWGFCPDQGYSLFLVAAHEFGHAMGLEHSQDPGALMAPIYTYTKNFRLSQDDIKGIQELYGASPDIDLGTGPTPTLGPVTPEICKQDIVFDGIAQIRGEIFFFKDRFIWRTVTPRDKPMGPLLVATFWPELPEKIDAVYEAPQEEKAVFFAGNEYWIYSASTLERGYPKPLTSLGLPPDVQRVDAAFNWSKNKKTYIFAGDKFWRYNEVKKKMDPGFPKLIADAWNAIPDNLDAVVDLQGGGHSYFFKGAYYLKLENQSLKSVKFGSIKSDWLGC
Protocol: H-150 buffer, pH 7.4, was prepared by CaCl2 H2O (1.47 grams), NaCl (8.77 grams) and N-[2 -hydroxyethyl]piperazine-N'-[2-ethanesulfonic acid](23.83 grams) to distilled and deionized water and then bring the final volume of the solution to 1 liter. An reaction mixture having a final volume of 250 μL was prepared with H-150 buffer, 40 μgrams of Pro-72KD gelatinase (Strongin, et al., J. Biol. Chem. 268:14033 (1993); Goldberg, et al., J. Biol. Chem., 267:4583 (1992); Kleiner, et al., Biochemistry 32:1583 (1993)) and p-aminophenyl mercuric acetate (Sigma Chemical Co., St. Louis, Mo.) (1 mM). The reaction mixture was then incubated for 3 hours at 25° C.
The reaction mixture was applied to a NAP-5 column (G-25 SEPHADEX™, Pharmacia). Fractions containing […] were identified using 12% SDS polyacrylamide gel electrphoresis and concentrated to about 100-200 μliters by centrifigation (5000 g, 15 minutes).
as §1, with “mL), 72KD” for “mL), 92KD”, “gelatinase (180” for “gelatinase (25”, “Mannheim) (1.3” for “Mannheim) (4.0”, “substrate (2” for “substrate (4”, “a 1” for “a 5”
as §2

stromelysin = stromelysin (Homo sapiens, UniProt P08254); assay: Assay of stromelysin inhibition activity (fluorogenic coumarin peptide substrate); conditions: trypsin-activated stromelysin 2 nM, H-150 buffer pH 7.4, room temperature; read-out: Ki(app)
Protocol: Stromelysin was first activated with trypsin. This was done by preparing a reaction mixture in H-150 (H-150 consists of 10 mM CaCl2, 150 mM NaCl and 100 mM HEPES at pH 7.4) containing a final concentration of 25 μg/mL trypsin and 2.2 μM of stromelysin (Marcy et al., Biochemistry,30:6476 (1991); Koklitis et al., Biochem. J., 376:217 (1991). The reaction was incubated for 30 minutes at 37° C. and then quenched by adding trypsin inhibitor agarose to the reaction mixture at a 20 fold excess with respect to trypsin.
The reaction mixture was centrifuged at 14,000 rpm (16,000 ×g) for 30 minutes using an Eppendorf Centrifuge 5415C. The supernant, which contains activated stromelysin, was concentrated with a Centricon 10 (5000 g, 1 hour). A sample was analyzed by Bradford total protein assay and 12% SDS polyacrylamide gel electrophoresis.
All steps of the stromelysin inhibition assay were performed at room temperature. Assay solutions were prepared for each inhibitor tested. Activated stromelysin was added to a stirred covelte to a final concentration of 2 nM in 2 mL of H-150 buffer. 4 μL 5 mM coumarin peptide substrate was dissolved in DMSO and the initial rate of hydrolysis was measured for 100-200 seconds.
Substrate hydrolysis was assessed by fluorescence using a slit width of 10:10, excitation at 328 nm and emission at 393 nm. Ki was calculated based on the assumption of simple competitive inhibition and a substrate concentration much less than Km. 2 μL of 10 mM inhibitor in DMSO was added and the reduction in hydrolysis rate measured. The addition of 2 μL of inhibitor was continued until a 30-70% inhibition was observed.

[1] = biological target: human neutrophil collagenase (Homo sapiens, UniProt P22894); assay: Assay of human neutrophil collagenase inhibition activity; conditions: human neutrophil collagenase 2 nM, H-150 buffer pH 7.4; read-out: Ki(app)
Protocol: H-150 buffer, pH 7.4, was prepared by adding CaCl2 H2 O (1.47 grams), NaCl (8.77 grams) and N-[2-hydroxyethyl]piperazine-N'-[2-ethanesulfonic acid] (23.83 grams) to distilled and deionized water and then bringing the final volume of the solution to 1 liter.
A reaction mixture with a final volume of 2.0 mL was prepared from H-150 buffer, human neutrophil collagenase (Schnierer, et al., Blochem. Biophys. Res. Comm., 191:319 (1993); Knight et al., Federation of Europena Biochemical Societies 296:263 (1992)) (2 nM). Coumarin peptide substrate (4 μL of a 5 mM solution in dimethyl sulfoxide) was added to the reaction mixture. The rate of hydrolysis was determined for about 100-200 seconds by measuring the fluorescence of the reaction at ex328 nanometers and […] using a Hitachi F-2000 Fluorescence Spectrophotometer.
as §2

Sequence of stromelysin (P08254 100-477): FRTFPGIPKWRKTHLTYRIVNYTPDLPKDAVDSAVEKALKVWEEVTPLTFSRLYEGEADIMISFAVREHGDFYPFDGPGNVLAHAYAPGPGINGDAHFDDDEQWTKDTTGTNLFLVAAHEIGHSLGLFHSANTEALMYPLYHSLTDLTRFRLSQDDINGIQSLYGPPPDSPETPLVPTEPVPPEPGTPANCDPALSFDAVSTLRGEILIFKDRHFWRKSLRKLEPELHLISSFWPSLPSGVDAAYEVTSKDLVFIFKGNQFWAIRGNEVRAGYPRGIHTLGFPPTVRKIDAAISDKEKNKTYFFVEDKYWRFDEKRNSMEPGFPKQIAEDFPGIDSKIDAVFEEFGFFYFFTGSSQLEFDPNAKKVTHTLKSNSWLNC
Sequence of 92 kD gelatinase (P14780 107-707): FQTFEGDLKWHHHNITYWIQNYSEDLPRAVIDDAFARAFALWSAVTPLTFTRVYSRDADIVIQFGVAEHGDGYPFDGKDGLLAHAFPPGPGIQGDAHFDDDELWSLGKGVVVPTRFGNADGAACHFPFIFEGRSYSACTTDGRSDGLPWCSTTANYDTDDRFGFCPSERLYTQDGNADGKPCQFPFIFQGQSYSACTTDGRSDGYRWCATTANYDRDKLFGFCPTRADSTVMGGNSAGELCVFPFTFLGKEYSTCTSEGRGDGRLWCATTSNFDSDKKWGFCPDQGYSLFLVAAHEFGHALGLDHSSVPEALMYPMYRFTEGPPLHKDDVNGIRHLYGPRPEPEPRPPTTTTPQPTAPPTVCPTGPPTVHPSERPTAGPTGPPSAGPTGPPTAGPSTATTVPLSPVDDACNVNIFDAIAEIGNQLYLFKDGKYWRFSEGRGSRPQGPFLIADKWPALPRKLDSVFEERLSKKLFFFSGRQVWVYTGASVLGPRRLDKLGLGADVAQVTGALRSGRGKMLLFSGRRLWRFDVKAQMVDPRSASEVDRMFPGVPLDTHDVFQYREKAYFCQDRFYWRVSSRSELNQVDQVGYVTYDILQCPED
Sequence of human neutrophil collagenase (P22894 101-467): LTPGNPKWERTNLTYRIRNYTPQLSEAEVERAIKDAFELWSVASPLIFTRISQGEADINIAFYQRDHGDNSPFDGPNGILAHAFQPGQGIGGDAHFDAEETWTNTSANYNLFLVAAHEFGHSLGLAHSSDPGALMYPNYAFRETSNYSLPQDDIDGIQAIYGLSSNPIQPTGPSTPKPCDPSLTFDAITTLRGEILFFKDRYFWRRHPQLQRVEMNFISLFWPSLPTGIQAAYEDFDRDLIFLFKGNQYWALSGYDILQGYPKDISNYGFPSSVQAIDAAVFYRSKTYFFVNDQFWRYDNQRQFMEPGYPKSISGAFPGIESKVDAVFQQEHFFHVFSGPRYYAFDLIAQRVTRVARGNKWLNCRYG

Ki (92 kD gelatinase) [nM] | Ki (72 kD gelatinase) [nM] | Ki (stromelysin) [nM] | Ki [1] [nM] | Structure (SMILES)
0.15 | – | – | – | O=C(N[C@@H](Cc1ccc(OCc2ccccc2)cc1)C(=O)N[C@@H](Cc1ccccc1)C(=O)Nc1n[nH]c(=S)s1)OCc1ccccc1
0.76 | – | – | – | O=C(N[C@H](C(=O)Nc1n[nH]c(=S)s1)c1ccccc1)[C@H](Cc1ccc(OCc2ccccc2)cc1)NC(=O)[C@@H]1CCCN1C(=O)OCc1ccccc1
0.31 | 0.68 | 44 | 1.04 | CC(C)[C@H](NC(=O)[C@H](Cc1ccccc1)NC(=O)c1ccc(NS(=O)(=O)c2ccc(C(C)(C)C)cc2)cc1)C(=O)Nc1n[nH]c(=S)s1 [5-(N-(4-(4-t-Butylphenylsulfonylamino)benzoyl)-phenylalanyl-valylamino)-1,3,4-thiadiazole-2-thione]
– | – | 101 | 1.67 | CC(C)[C@H](NC(=O)[C@H](Cc1ccccc1)NC(=O)c1ccc(Oc2ccccc2)cc1)C(=O)Nc1n[nH]c(=S)s1 [5-(N-(4-phenoxy)benzoyl-phenylalanyl-valylamino)-1,3,4-thiadiazole-2-thione]
0.31 | 0.8 | 82 | 2.6 | CC(C)[C@H](NC(=O)[C@H](Cc1ccccc1)NC(=O)c1ccc(-c2ccccc2)cc1)C(=O)Nc1n[nH]c(=S)s1 [5-(N-(4-phenylbenzoyl)phenylalanyl-valylamino)-1,3,4-thiadiazole-2-thione]
0.23 | – | – | – | O=C(N[C@@H](Cc1ccccc1)C(=O)Nc1n[nH]c(=S)s1)OCC1c2ccccc2-c2ccccc21 [5-(N-(9-fluorenylmethoxycarbonyl)-phenylalanylamino)-1,3,4-thiadiazole-2-thione]
– | 0.38 | – | – | O=C(CNC(=O)[C@H](Cc1ccc(OCc2ccccc2)cc1)NC(=O)OCc1ccccc1)Nc1n[nH]c(=S)s1 [5-(N-benzyloxycarbonyl-(O-Benzyl)tyrosyl-glycylamino)-1,3,4-thiadiazole-2-thione]
– | 0.073 | 110 | – | O=C(CNC(=O)OCc1ccccc1)NC(Cc1ccc(O)cc1)C(=O)NC(Cc1ccc(OCc2ccccc2)cc1)C(=O)NC(C(=O)Nc1n[nH]c(=S)s1)c1ccccc1 (centres unmarked) [5-(N-benzyloxycarbonyl-glycyl-tyrosyl-(O-benzyl)tyrosyl)-phenylglycylamino)-1,3,4-thiadiazole-2-thione] (Cbz-GYY(Bn)[Phg]-X1; configuration not given here)
3.6 | – | 1400 | – | C[C@H](NC(=O)[C@H](Cc1ccccc1)NC(=O)OCc1ccccc1)C(=O)Nc1n[nH]c(=S)s1 [5-(N-benzyloxycarbonyl-phenylalanyl-alanylamino)-1,3,4-thiadiazole-2-thione]
– | 0.95 | – | 2.9 | O=C(N[C@@H](Cc1ccccc1)C(=O)N[C@@H](CCc1ccccc1)C(=O)Nc1n[nH]c(=S)s1)OCc1ccccc1 [5-(N-benzyloxycarbonyl-phenylalanyl-homophenylalanylamino)-1,3,4-thiadiazole-2-thione]
– | – | 246 | 1.45 | CC(C)C[C@H](NC(=O)[C@H](Cc1ccccc1)NC(=O)OCc1ccccc1)C(=O)N[C@@H](Cc1c[nH]c2ccccc12)C(=O)Nc1n[nH]c(=S)s1 [5-(N-benzyloxycarbonyl-phenylalanyl-leucyl-tryptonylamino)-1,3,4-thiadiazole-2-thione]
– | – | 180 | – | CC(C)[C@H](NC(=O)[C@H](Cc1ccc([N+](=O)[O-])cc1)NC(=O)OCc1ccccc1)C(=O)Nc1n[nH]c(=S)s1 [5-(benzyloxycarbonyl-(p-nitro)phenylalanyl-valylamino)-1,3,4-thiadiazole-2-thione]

Structure (SMILES) | Ki (92 kD gelatinase) [nM] | Ki (72 kD gelatinase) [nM] | Ki (stromelysin) [nM] | Ki [1] [nM]
CSCC[C@H](NC(=O)[C@H](Cc1ccccc1)NC(=O)OCc1ccccc1)C(=O)N[C@@H](Cc1ccc(OCc2ccccc2)cc1)C(=O)N[C@H](C(=O)Nc1n[nH]c(=S)s1)c1ccccc1 | – | 0.2 | – | –
CC(C)C[C@H](NC(=O)[C@H](Cc1ccc(OCc2ccccc2)cc1)NC(=O)OCc1ccccc1)C(=O)Nc1n[nH]c(=S)s1 [5-(N-benzyloxycarbonyl-((O-benzyl)tyrosyl)-leucylamino)-1,3,4-thiadiazole-2-thione] | 0.29 | 0.24 | 96 | 1.83
CC(C)(C)OC(=O)N[C@@H](Cc1ccc(OCc2ccccc2)cc1)C(=O)NC(C(=O)Nc1n[nH]c(=S)s1)c1ccccc1 (some centres unmarked) [5-(N-t-Butoxycarbonyl-(O-benzyl)tyrosyl-phenylglycineamino)-1,3,4-thiadiazole-2-thione] | 0.245 | 0.51 | – | 0.99
CC(C)C[C@H](NC(=O)OC(C)(C)C)C(=O)Nc1n[nH]c(=S)s1 [5-(N-t-butoxycarbonyl-leucylamino)-1,3,4-thiadiazole-2-thione] | – | – | 10200 | –
